Among the data in patent US12161722B2, “Bifunctional heterocyclic compound having BTK degradation function via ubiquitin proteasome pathway, and use thereof” (KOREA RESEARCH INSTITUTE OF CHEMICAL TECHNOLOGY, priority 2021, dated 2024) are DC50 values, retold here.

The target of this assay is T1, WT BTK protein (Homo sapiens, UniProt Q06187).
T1 construct: measured for intracellular BTK protein levels by Western blotting; endogenous in cells; host or cells: TMD-8 or RAMOS cells
T1 sequence (Q06187 whole entry): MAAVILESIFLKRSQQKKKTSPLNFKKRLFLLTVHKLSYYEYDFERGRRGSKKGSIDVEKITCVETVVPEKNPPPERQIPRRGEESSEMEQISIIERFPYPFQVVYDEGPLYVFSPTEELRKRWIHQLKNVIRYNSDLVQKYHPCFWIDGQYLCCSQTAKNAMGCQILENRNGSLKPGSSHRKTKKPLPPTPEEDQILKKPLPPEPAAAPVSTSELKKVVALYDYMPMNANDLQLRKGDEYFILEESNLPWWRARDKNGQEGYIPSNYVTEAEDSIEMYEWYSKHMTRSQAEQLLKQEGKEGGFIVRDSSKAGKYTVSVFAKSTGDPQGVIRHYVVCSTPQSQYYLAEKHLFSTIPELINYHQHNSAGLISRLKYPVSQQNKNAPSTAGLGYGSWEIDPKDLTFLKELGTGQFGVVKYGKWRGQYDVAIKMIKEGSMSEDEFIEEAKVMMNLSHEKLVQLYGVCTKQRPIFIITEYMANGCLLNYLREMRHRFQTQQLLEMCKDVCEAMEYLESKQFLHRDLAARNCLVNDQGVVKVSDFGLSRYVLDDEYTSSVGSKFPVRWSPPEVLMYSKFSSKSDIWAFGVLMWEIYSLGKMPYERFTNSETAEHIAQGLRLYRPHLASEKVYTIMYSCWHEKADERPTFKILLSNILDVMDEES
Put plainly: BTK protein degradation assay (Western blotting), WT BTK. The conditions noted are these: concentration range accounting for 50% degradation of WT BTK protein, TMD-8 or RAMOS cells, 24 hours. Format: cell-based. The procedure, abridged:
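TMD-8 cells (1×10^6 cells/mL) treated 24 h with compound serial dilutions, then lysed in RIPA. Equal protein loads analysed by Western blot for BTK with GAPDH/β-actin as loading controls; activity binned by concentration giving 50% WT BTK degradation.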
Background: A western blot detects proteins with antibodies after separation by electrophoresis.
Usually DC50 stands for the concentration at which degradation of the target reaches its halfway point. As for `Cc1cccc(C)c1Nc1nn(C)c2nc(Nc3ccc(N4CCN(C5CN(c6ccc7c(c6)C(=O)N(C6CCC(=O)NC6=O)C7=O)C5)CC4)nc3)ncc12` (stereo not shown) [Compound 158, 5-(3-(4-(5-((3-((2,6-Dimethylphenyl)amino)-1-methyl-1H-pyrazolo[3,4-d]pyrimidin-6-yl)amino)pyridin-2-yl)piperazin-1-yl)azetidin-1-yl)-2-(2,6-dioxopiperidin-3-yl)isoindoline-1,3-dione], the DC50 was 0.1 to 10 nM.

Regarding `Cc1cccc(C)c1Nc1nn(C)c2nc(Nc3ccc(N4CCN(CC5CN(c6ccc7c(c6)C(=O)N(C6CCC(=O)NC6=O)C7=O)C5)CC4)nc3)ncc12` (stereo not shown) [Compound 159, 5-(3-((4-(5-((3-((2,6-dimethylphenyl)amino)-1-methyl-1H-pyrazolo[3,4-d]pyrimidin-6-yl)amino)pyridin-2-yl)piperazin-1-yl)methyl)azetidin-1-yl)-2-(2,6-dioxopiperidin-3-yl)isoindoline-1,3-dione], the DC50 lay in the range of 0.1 to 10 nM. Turning to `Cc1cccc(C)c1Nc1nn(C)c2nc(Nc3ccc(N4CCN(C[C@H]5CCCN(c6ccc7c(c6)C(=O)N(C6CCC(=O)NC6=O)C7=O)C5)CC4)nc3)ncc12` (stereo partly drawn) [Compound 160, 5-((R)-3-((4-(5-((3-((2,6-Dimethylphenyl)amino)-1-methyl-1H-pyrazolo[3,4-d]pyrimidin-6-yl)amino)pyridin-2-yl)piperazin-1-yl)methyl)piperidin-1-yl)-2-(2,6-dioxopiperidin-3-yl)isoindoline-1,3-dione], the DC50 lay in the range of 0.1 to 10 nM. Consider `Cc1cccc(C)c1Nc1nn(C)c2nc(Nc3ccc(N4CCN(C[C@@H]5CCCN(c6ccc7c(c6)C(=O)N(C6CCC(=O)NC6=O)C7=O)C5)CC4)nc3)ncc12` (stereo partly drawn) [Compound 161, 5-((S)-3-((4-(5-((3-((2,6-Dimethylphenyl)amino)-1-methyl-1H-pyrazolo[3,4-d]pyrimidin-6-yl)amino)pyridin-2-yl)piperazin-1-yl)methyl)piperidin-1-yl)-2-(2,6-dioxopiperidin-3-yl)isoindoline-1,3-dione], for which the 50% degradation concentration (DC50) was 0.1 to 10 nM.

`Cc1cccc(C)c1Nc1nn(C)c2nc(Nc3ccc(N4CCN(CC5CCN(c6ccc7c(c6)C(=O)N(C6CCC(=O)NC6=O)C7=O)CC5)CC4)cn3)ncc12` (stereo not shown) [Compound 162, 5-(4-((4-(6-((3-((2,6-Dimethylphenyl)amino)-1-methyl-1H-pyrazolo[3,4-d]pyrimidin-6-yl)amino)pyridin-3-yl)piperazin-1-yl)methyl)piperidin-1-yl)-2-(2,6-dioxopiperidin-3-yl)isoindoline-1,3-dione]: the DC50 is 10 to 1000 nM. Consider `Cc1cccc(C)c1Nc1nn(C)c2nc(Nc3ccc(N4CCN(CC5CCN(c6ccc7c(c6)C(=O)N(C6CCC(=O)NC6=O)C7=O)CC5)CC4)cc3)ncc12` (stereo not shown) [Compound 163, 5-(4-((4-(4-((3-((2,6-Dimethylphenyl)amino)-1-methyl-1H-pyrazolo[3,4-d]pyrimidin-6-yl)amino)phenyl)piperazin-1-yl)methyl)piperidin-1-yl)-2-(2,6-dioxopiperidin-3-yl)isoindoline-1,3-dione], for which the DC50 lay within 0.1 to 10 nM. As to `Cc1cccc(C)c1Nc1nn(C)c2nc(Nc3ccc(C4CCN(CC5CCN(c6ccc7c(c6)C(=O)N(C6CCC(=O)NC6=O)C7=O)CC5)CC4)nc3)ncc12` (stereo not shown) [Compound 164, 5-(4-((4-(5-((3-((2,6-Dimethylphenyl)amino)-1-methyl-1H-pyrazolo[3,4-d]pyrimidin-6-yl)amino)pyridin-2-yl)piperidin-1-yl)methyl)piperidin-1-yl)-2-(2,6-dioxopiperidin-3-yl)isoindoline-1,3-dione], the DC50 was 0.1 to 10 nM.

`Cc1cccc(C)c1Nc1nn(C)c2nc(Nc3ccc(C4CCN(CC5CCN(c6ccc7c(c6)C(=O)N(C6CCC(=O)NC6=O)C7=O)CC5)CC4)cc3)ncc12` (stereo not shown) [Compound 165, 5-(4-((4-(4-((3-((2,6-Dimethylphenyl)amino)-1-methyl-1H-pyrazolo[3,4-d]pyrimidin-6-yl)amino)phenyl)piperidin-1-yl)methyl)piperidin-1-yl)-2-(2,6-dioxopiperidin-3-yl)isoindoline-1,3-dione]: the DC50 was 0.1 to 10 nM. Take `Cc1cccc(C)c1Nc1nn(C)c2nc(Nc3ccc(C4CCN(C[C@H]5CCN(c6ccc7c(c6)C(=O)N(C6CCC(=O)NC6=O)C7=O)C5)CC4)cc3)ncc12` (stereo partly drawn) [Compound 166, 5-((R)-3-((4-(4-((3-((2,6-Dimethylphenyl)amino)-1-methyl-1H-pyrazolo[3,4-d]pyrimidin-6-yl)amino)phenyl)piperidin-1-yl)methyl)pyrrolidin-1-yl)-2-(2,6-dioxopiperidin-3-yl)isoindoline-1,3-dione]: the DC50 lay within 0.1 to 10 nM.

Consider `Cc1cccc(C)c1Nc1nn(C)c2nc(Nc3ccc(C4CCN(C[C@@H]5CCN(c6ccc7c(c6)C(=O)N(C6CCC(=O)NC6=O)C7=O)C5)CC4)cc3)ncc12` (stereo partly drawn) [Compound 167, 5-((S)-3-((4-(4-((3-((2,6-Dimethylphenyl)amino)-1-methyl-1H-pyrazolo[3,4-d]pyrimidin-6-yl)amino)phenyl)piperidin-1-yl)methyl)pyrrolidin-1-yl)-2-(2,6-dioxopiperidin-3-yl)isoindoline-1,3-dione], for which the DC50 fell in the range of 0.1 to 10 nM. `Cc1cccc(C)c1Nc1nn(C)c2nc(Nc3ccc(C4CCN(C5CCN(c6ccc7c(c6)C(=O)N(C6CCC(=O)NC6=O)C7=O)CC5)CC4)cc3)ncc12` (stereo not shown) [Compound 168, 5-(4-(4-((3-((2,6-Dimethylphenyl)amino)-1-methyl-1H-pyrazolo[3,4-d]pyrimidin-6-yl)amino)phenyl)-[1,4′-bipyridin]-1′-yl)-2-(2,6-dioxopiperidin-3-yl)isoindoline-1,3-dione]: the DC50 lay within 0.1 to 10 nM.

On to `Cc1cccc(C)c1Nc1nn(C)c2nc(Nc3ccc(C4CCN(CC5CN(c6ccc7c(c6)C(=O)N(C6CCC(=O)NC6=O)C7=O)C5)CC4)cc3)ncc12` (stereo not shown) [Compound 169, 5-(3-((4-(4-((3-((2,6-Dimethylphenyl)amino)-1-methyl-1H-pyrazolo[3,4-d]pyrimidin-6-yl)amino)phenyl)piperidin-1-yl)methyl)azetidin-1-yl)-2-(2,6-dioxopiperidin-3-yl)isoindoline-1,3-dione], for which the DC50 was 0.1 to 10 nM. Next, `Cc1cccc(C)c1Nc1nn(C)c2nc(Nc3ccc(C4CCN(CC5CCN(c6ccc7c(n6)CN(C6CCC(=O)NC6=O)C7=O)CC5)CC4)cc3)ncc12` (stereo not shown) [Compound 170, 3-(2-(4-((4-(4-((3-((2,6-Dimethylphenyl)amino)-1-methyl-1H-pyrazolo[3,4-d]pyrimidin-6-yl)amino)phenyl)piperidin-1-yl)methyl)piperidin-1-yl)-5-oxo-5,7-dihydro-6H-pyrrolo[3,4-b]pyridin-6-yl)piperidin-2,6-one]: 0.1 to 10 nM; `Cc1cccc(C)c1Nc1nn(C)c2nc(Nc3cnc(N4CCN(CC5CCN(c6ccc7c(c6)C(=O)N(C6CCC(=O)NC6=O)C7=O)CC5)CC4)nc3)ncc12` (stereo not shown) [Compound 171, 5-(4-((4-(5-((3-((2,6-Dimethylphenyl)amino)-1-methyl-1H-pyrazolo[3,4-d]pyrimidin-6-yl)amino)pyrimidin-2-yl)piperazin-1-yl)methyl)piperidin-1-yl)-2-(2,6-dioxopiperidin-3-yl)isoindoline-1,3-dione]: 0.1 to 10 nM. In the case of `Cc1cccc(C)c1Nc1nn(C)c2nc(Nc3ccc4c(c3)CCN(CC3CCN(c5ccc6c(c5)C(=O)N(C5CCC(=O)NC5=O)C6=O)CC3)C4)ncc12` (stereo not shown) [Compound 172, 5-(4-((6-((3-((2,6-Dimethylphenyl)amino)-1-methyl-1H-pyrazolo[3,4-d]pyrimidin-6-yl)amino)-3,4-dihydroisoquinolin-2 (1H)-yl)methyl)piperidin-1-yl)-2-(2,6-dioxopiperidin-3-yl)isoindoline-1,3-dione] it was 0.1 to 10 nM; in that of `Cc1cccc(C)c1Nc1nn(C)c2nc(Nc3ccc4c(c3)CCN(C[C@H]3CCN(c5ccc6c(c5)C(=O)N(C5CCC(=O)NC5=O)C6=O)C3)C4)ncc12` (stereo partly drawn) [Compound 173, 5-((R)-3-((6-((3-((2,6-Dimethylphenyl)amino)-1-methyl-1H-pyrazolo[3,4-d]pyrimidin-6-yl)amino)-3,4-dihydroisoquinolin-2 (1H)-yl)methyl)pyrrolidin-1-yl)-2-(2,6-dioxopiperidin-3-yl)isoindoline-1,3-dione], 0.1 to 10 nM; in that of `Cc1cccc(C)c1Nc1nn(C)c2nc(Nc3ccc4c(c3)CCN(C[C@@H]3CCN(c5ccc6c(c5)C(=O)N(C5CCC(=O)NC5=O)C6=O)C3)C4)ncc12` (stereo partly drawn) [Compound 174, 5-((S)-3-((6-((3-((2,6-Dimethylphenyl)amino)-1-methyl-1H-pyrazolo[3,4-d]pyrimidin-6-yl)amino)-3,4-dihydroisoquinolin-2 (1H)-yl)methyl)pyrrolidin-1-yl)-2-(2,6-dioxopiperidin-3-yl)isoindoline-1,3-dione], 0.1 to 10 nM. Next, `Cc1cccc(C)c1Nc1nn(C)c2nc(Nc3ccc(C4CN(CC5CCN(c6ccc7c(c6)C(=O)N(C6CCC(=O)NC6=O)C7=O)CC5)C4)cc3)ncc12` (stereo not shown) [Compound 175, 5-(4-((3-(4-((3-((2,6-Dimethylphenyl)amino)-1-methyl-1H-pyrazolo[3,4-d]pyrimidin-6-yl)amino)phenyl)azetidin-1-yl)methyl)piperidin-1-yl)-2-(2,6-dioxopiperidin-3-yl)isoindoline-1,3-dione]: 0.1 to 10 nM. Consider `Cc1cccc(C)c1Nc1nn(C)c2nc(Nc3ccc(C4CN(C[C@H]5CCN(c6ccc7c(c6)C(=O)N(C6CCC(=O)NC6=O)C7=O)C5)C4)cc3)ncc12` (stereo partly drawn) [Compound 176, 5-((R)-3-((3-(4-((3-((2,6-dimethylphenyl)amino)-1-methyl-1H-pyrazolo[3,4-d]pyrimidin-6-yl)amino)phenyl)azetidin-1-yl)methyl)pyrrolidin-1-yl)-2-(2,6-dioxopiperidin-3-yl)isoindoline-1,3-dione], for which the DC50 was 0.1 to 10 nM.
